For 9 compounds, Ki results are on record in ChEMBL document CHEMBL1143467, “Synthesis of potent and selective serotonin 5-HT1B receptor ligands” (Bioorg Med Chem Lett, 2005).

Assay [1] has as its target 5-hydroxytryptamine receptor 1B (Homo sapiens, UniProt P28222). In words: In vitro binding affinity towards cloned human 5-HT1B receptor using [3H]5-carboximidotryptamine as radioligand.
The target in a further assay is D(1A) dopamine receptor (Homo sapiens, UniProt P21728). Put plainly: Affinity towards cloned Dopamine receptor D1.
D(1A) dopamine receptor, sequence (P21728 whole entry): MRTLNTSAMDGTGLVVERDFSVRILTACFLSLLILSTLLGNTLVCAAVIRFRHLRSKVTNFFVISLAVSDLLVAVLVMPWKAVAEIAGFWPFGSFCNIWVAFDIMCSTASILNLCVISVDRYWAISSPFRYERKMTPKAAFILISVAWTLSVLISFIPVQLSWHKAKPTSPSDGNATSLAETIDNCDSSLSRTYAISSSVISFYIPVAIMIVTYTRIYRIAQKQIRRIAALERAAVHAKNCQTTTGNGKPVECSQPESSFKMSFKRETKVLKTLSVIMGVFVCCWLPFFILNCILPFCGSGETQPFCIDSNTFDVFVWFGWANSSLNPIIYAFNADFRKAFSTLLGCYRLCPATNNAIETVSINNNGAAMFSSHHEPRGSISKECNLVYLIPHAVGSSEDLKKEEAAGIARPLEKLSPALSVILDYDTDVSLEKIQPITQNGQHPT
The target of assay [2] is T1, 5-hydroxytryptamine receptor 1A (Homo sapiens, UniProt P08908).
T1 sequence (P08908 whole entry): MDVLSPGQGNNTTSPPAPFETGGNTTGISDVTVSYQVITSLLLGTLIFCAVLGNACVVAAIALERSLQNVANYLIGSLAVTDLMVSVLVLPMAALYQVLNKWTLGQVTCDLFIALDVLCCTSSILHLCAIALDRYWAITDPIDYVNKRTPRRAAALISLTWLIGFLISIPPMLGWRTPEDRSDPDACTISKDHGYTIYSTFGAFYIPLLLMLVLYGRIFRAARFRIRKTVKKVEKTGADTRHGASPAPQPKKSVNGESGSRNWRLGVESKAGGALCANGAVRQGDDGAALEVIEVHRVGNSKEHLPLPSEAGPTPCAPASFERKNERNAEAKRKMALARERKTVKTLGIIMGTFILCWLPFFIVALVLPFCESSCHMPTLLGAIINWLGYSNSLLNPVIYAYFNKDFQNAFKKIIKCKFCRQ
Put plainly: In vitro binding affinity towards cloned human 5-HT1A receptor using [3H]5-carboximidotryptamine as radioligand.

Assay [3] deals with T2, Muscarinic acetylcholine receptor M4 (Homo sapiens, UniProt P08173).
T2 sequence (P08173 whole entry): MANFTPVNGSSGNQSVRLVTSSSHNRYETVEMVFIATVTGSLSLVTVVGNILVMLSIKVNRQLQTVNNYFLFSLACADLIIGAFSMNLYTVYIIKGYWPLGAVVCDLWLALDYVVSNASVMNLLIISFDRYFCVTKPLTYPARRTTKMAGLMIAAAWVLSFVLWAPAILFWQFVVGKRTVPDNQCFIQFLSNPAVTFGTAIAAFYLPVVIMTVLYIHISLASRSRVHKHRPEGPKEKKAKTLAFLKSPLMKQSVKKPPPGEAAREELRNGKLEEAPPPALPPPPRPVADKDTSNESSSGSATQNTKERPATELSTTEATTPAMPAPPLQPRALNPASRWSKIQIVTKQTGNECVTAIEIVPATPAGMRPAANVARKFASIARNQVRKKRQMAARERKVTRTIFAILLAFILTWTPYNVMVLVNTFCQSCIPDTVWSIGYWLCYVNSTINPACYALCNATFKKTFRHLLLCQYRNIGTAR
Put plainly: Affinity towards cloned Muscarinic acetylcholine receptor M4.

Assay [4] addresses Muscarinic acetylcholine receptor M3 (Homo sapiens, UniProt P20309). Put plainly: Affinity towards cloned Muscarinic acetylcholine receptor M3.
The target of assay [5] is T3, Muscarinic acetylcholine receptor M2 (Homo sapiens, UniProt P08172).
T3 sequence (P08172 whole entry): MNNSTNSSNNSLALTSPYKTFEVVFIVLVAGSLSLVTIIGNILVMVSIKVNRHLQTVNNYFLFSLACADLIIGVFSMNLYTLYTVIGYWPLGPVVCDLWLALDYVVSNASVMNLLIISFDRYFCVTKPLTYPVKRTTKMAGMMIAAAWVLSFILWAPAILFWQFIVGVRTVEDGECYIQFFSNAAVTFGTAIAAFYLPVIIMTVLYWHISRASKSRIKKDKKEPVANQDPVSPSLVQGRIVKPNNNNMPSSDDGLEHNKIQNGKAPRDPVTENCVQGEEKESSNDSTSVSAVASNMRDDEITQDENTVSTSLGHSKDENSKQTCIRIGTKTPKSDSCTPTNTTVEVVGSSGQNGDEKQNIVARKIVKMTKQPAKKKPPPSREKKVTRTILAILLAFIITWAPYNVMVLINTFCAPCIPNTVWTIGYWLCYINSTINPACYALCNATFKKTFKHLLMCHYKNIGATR
Put plainly: Affinity towards cloned Muscarinic acetylcholine receptor M2.

For the next assay, the target named is Histamine H1 receptor (Homo sapiens, UniProt P35367). In words: Affinity towards cloned Histamine H1 receptor.
Histamine H1 receptor, sequence (P35367 whole entry): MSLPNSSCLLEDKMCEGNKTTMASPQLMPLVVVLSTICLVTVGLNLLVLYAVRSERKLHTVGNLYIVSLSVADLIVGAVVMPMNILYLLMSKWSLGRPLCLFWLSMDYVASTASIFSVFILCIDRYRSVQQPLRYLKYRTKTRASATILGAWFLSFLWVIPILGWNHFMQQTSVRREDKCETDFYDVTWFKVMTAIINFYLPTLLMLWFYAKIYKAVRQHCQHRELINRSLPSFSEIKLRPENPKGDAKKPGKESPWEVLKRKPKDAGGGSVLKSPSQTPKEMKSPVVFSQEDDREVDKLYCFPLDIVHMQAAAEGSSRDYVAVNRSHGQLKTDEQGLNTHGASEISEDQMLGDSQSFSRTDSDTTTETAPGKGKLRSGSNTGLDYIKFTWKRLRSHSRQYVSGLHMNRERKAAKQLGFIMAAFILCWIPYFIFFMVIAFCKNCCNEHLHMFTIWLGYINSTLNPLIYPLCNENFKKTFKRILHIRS
For assay [6], the target named is T4, Muscarinic acetylcholine receptor M1 (Homo sapiens, UniProt P11229).
T4 sequence (P11229 whole entry): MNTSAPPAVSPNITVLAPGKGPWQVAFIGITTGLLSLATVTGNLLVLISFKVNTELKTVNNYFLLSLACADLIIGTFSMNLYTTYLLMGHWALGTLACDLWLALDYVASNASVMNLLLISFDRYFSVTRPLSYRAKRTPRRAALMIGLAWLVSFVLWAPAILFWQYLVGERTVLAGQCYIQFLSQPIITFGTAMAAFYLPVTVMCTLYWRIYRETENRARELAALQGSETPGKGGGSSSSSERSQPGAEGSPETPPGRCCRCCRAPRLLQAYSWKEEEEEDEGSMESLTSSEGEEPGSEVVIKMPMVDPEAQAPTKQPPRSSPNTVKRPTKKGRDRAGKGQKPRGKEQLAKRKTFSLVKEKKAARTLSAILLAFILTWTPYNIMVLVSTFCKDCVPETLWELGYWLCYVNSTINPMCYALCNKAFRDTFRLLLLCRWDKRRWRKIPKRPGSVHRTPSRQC
In words: Affinity towards cloned Muscarinic acetylcholine receptor M1.

In assay [7] the target is Kappa-type opioid receptor (Homo sapiens, UniProt P41145). In words: Affinity towards cloned Opioid receptor kappa 1.
Kappa-type opioid receptor, sequence (P41145 whole entry): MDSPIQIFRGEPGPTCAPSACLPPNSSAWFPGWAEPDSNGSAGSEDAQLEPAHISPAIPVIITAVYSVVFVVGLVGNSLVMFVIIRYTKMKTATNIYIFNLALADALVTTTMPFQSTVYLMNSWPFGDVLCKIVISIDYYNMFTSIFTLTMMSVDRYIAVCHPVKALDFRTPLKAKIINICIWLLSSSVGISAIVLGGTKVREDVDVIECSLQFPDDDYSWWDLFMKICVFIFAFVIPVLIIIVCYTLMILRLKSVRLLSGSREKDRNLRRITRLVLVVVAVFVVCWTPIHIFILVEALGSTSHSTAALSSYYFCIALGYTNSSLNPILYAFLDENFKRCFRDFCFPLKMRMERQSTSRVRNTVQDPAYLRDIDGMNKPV
Assay [8] has as its target 5-hydroxytryptamine receptor 7 (Homo sapiens, UniProt P34969). Put plainly: In vitro binding affinity towards cloned human 5-HT7 receptor using [3H]5-carboximidotryptamine as radioligand.
Assay [9] deals with 5-hydroxytryptamine receptor 2A (Homo sapiens, UniProt P28223). Put plainly: In vitro binding affinity towards cloned human 5-HT2A receptor using [3H]5-carboximidotryptamine as radioligand.
5-hydroxytryptamine receptor 2A, sequence (P28223 whole entry): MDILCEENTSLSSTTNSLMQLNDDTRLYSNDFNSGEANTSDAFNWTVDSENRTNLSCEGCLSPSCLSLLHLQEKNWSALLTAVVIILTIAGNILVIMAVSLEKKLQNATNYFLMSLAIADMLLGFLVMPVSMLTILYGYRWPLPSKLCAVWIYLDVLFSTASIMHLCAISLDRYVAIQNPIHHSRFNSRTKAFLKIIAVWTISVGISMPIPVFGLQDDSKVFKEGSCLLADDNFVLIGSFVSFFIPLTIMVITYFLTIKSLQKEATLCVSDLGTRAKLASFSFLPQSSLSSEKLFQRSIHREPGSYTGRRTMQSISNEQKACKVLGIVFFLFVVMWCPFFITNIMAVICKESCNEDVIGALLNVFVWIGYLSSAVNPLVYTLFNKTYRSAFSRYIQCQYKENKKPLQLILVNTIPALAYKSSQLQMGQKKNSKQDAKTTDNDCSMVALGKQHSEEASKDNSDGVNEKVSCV
In a further assay the target is D(3) dopamine receptor (Homo sapiens, UniProt P35462). In words: Affinity towards cloned Dopamine receptor D3.
D(3) dopamine receptor, sequence (P35462 whole entry): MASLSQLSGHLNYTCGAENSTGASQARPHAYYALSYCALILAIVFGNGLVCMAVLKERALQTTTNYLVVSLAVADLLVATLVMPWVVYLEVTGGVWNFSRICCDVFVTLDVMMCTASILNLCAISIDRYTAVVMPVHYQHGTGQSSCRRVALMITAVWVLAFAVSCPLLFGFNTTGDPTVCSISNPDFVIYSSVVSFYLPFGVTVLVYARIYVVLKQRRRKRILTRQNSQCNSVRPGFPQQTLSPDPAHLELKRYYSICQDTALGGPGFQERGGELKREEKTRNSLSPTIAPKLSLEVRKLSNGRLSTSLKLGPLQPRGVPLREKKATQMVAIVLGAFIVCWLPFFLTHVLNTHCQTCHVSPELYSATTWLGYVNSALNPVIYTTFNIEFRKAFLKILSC
Assay [10] is described as follows: Affinity towards cloned Nicotinic acetylcholine receptor.
The target in assay [11] is T5, Muscarinic acetylcholine receptor M5 (Homo sapiens, UniProt P08912).
T5 sequence (P08912 whole entry): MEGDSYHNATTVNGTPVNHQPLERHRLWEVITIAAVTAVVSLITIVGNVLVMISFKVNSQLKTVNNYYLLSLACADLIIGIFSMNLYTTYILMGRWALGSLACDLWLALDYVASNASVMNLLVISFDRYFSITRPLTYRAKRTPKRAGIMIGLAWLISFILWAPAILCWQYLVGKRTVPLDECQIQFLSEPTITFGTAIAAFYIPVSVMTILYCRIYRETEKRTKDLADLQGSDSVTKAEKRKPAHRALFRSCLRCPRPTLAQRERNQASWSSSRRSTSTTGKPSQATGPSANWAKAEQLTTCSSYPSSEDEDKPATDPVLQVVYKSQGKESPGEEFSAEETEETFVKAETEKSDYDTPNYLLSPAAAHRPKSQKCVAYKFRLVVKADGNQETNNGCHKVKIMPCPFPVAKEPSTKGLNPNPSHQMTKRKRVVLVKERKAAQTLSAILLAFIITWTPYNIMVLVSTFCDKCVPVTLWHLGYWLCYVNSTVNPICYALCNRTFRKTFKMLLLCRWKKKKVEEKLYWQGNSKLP
Put plainly: Affinity towards cloned Muscarinic acetylcholine receptor M5.

The next assay deals with D(2) dopamine receptor (Homo sapiens, UniProt P14416). In words: Affinity towards cloned Dopamine receptor D2.
D(2) dopamine receptor, sequence (P14416 whole entry): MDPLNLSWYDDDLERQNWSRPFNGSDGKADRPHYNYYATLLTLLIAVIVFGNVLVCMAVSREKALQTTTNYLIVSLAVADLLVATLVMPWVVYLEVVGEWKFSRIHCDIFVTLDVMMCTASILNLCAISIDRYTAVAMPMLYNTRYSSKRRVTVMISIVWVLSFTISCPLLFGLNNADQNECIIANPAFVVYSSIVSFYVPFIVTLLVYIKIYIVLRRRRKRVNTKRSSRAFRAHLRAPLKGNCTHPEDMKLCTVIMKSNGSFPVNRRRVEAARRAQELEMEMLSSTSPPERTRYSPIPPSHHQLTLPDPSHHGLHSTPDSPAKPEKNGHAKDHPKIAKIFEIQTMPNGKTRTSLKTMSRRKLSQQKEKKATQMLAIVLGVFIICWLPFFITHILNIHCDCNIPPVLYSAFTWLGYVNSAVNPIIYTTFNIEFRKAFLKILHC

5-hydroxytryptamine receptor 1B, sequence (P28222 whole entry): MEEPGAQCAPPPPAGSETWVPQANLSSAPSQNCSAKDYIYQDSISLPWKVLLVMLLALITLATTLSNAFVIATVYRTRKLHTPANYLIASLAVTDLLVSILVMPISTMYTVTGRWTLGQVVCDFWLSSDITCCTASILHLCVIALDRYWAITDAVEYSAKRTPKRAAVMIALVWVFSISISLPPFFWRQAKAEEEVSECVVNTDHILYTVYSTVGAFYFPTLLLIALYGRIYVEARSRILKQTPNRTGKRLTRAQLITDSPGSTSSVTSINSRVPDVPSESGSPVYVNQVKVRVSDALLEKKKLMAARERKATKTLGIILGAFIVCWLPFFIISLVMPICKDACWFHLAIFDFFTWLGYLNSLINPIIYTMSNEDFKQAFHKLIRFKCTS
5-hydroxytryptamine receptor 7, sequence (P34969 whole entry): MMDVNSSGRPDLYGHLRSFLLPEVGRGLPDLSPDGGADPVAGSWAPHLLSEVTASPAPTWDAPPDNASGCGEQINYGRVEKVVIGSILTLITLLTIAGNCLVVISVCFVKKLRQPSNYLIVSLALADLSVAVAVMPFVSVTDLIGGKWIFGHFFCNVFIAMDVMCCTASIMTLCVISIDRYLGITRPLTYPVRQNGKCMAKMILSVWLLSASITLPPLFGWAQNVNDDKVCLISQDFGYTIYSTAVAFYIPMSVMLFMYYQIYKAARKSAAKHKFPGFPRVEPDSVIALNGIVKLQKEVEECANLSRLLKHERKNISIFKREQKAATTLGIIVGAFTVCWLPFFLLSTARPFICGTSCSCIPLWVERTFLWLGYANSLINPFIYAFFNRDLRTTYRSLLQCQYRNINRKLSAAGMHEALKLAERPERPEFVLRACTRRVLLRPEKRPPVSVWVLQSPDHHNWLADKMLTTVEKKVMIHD
Muscarinic acetylcholine receptor M3, sequence (P20309 whole entry): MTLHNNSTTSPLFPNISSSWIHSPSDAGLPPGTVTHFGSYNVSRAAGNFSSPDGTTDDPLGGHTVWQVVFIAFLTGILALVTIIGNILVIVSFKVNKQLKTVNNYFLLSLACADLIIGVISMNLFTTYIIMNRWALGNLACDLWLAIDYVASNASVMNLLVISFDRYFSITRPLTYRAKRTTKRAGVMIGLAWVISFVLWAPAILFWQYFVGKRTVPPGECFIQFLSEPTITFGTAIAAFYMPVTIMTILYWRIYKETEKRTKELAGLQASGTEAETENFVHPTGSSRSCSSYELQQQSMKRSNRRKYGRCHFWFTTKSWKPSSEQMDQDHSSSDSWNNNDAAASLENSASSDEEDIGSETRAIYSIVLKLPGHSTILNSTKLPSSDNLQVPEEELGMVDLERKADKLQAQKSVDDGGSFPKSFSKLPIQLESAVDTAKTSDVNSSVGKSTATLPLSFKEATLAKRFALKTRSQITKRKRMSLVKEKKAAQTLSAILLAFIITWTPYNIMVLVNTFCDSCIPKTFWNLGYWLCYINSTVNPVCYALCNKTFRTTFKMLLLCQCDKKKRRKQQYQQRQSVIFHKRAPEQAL

Turning to `COc1ccc(NC(=O)N2CCN(c3ccc(C(F)(F)F)cc3)CC2)cc1N1CCN(C)CC1`, the inhibition constant (Ki) (in general, a measure of affinity in units of concentration, obtained from inhibition or displacement) in [1] is 0.0284 µM; at D(1A) dopamine receptor, over 10 µM; in assay [2] it was 0.382 µM; in assay [3] it was over 10 µM; in assay [4], over 10 µM; in assay [5] it was over 10 µM. Besides, the inhibition constant Ki at Histamine H1 receptor is over 10 µM; in assay [6], over 10 µM; in assay [7] it was over 10 µM; in [8] it was over 10 µM; in [9] it was 0.614 µM; at D(3) dopamine receptor it was over 10 µM. The inhibitory constant (Ki) (in assay [10]; in [11]; on D(2) dopamine receptor) was over 10 µM each time.

Consider `COc1ccc(NC(=O)N2CCN(c3ccccc3Cl)CC2)cc1N1CCN(C)CC1`, for which the Ki in [1] was 0.0113 µM; on D(1A) dopamine receptor, over 10 µM; in assay [2], 0.335 µM; in assay [3], over 10 µM; in assay [4], over 10 µM; in [5], over 10 µM. The Ki is over 10 µM at Histamine H1 receptor; over 10 µM in assay [6]; over 10 µM in assay [7]; 0.342 µM in assay [8]; 5.99 µM in [9]; over 10 µM on D(3) dopamine receptor. Also, the inhibition constant Ki (in assay [10]; in assay [11]; at D(2) dopamine receptor) was over 10 µM in each case.

In the case of `COc1ccccc1N1CCC(C(=O)Nc2ccc(OC)c(N3CCN(C)CC3)c2)CC1`, the Ki was 0.00968 µM in assay [1]; over 10 µM on D(1A) dopamine receptor; 0.0154 µM in assay [2]; over 10 µM in assay [3]; over 10 µM in assay [4]; over 10 µM in assay [5]. Further, the inhibition constant (Ki) (at Histamine H1 receptor; in [6]; in [7]; in [9]; at D(3) dopamine receptor; in assay [10]) was over 10 µM throughout. Besides, the Ki (in assay [11]; at D(2) dopamine receptor) was over 10 µM throughout.

For `COc1ccc(NC(=O)N2CCN(c3ccccc3F)CC2)cc1N1CCN(C)CC1`, the Ki in assay [1] is 0.0181 µM; on D(1A) dopamine receptor it was over 10 µM; in assay [2] it was 0.315 µM; in [3], over 10 µM; in assay [4], over 10 µM; in assay [5] it was over 10 µM. Moreover, the inhibitory constant (Ki) (at Histamine H1 receptor; in assay [6]; in assay [7]; in assay [8]; in assay [9]; on D(3) dopamine receptor) was over 10 µM in each case. Also, the Ki (in assay [10]; in assay [11]; at D(2) dopamine receptor) was over 10 µM in each case.

Turning to `COc1ccc(NC(=O)N2CCN(c3ccc(-c4ccccc4)cc3)CC2)cc1N1CCN(C)CC1`, the Ki in assay [1] was 0.0137 µM; at D(1A) dopamine receptor, over 10 µM; in [2], 0.405 µM; in [3], over 10 µM; in assay [4], over 10 µM; in assay [5], over 10 µM. The Ki was over 10 µM on Histamine H1 receptor; over 10 µM in assay [6]; over 10 µM in assay [7]; over 10 µM in assay [8]; 0.171 µM in [9]; over 10 µM at D(3) dopamine receptor. Besides, the inhibitory constant (Ki) (in [10]; in [11]; on D(2) dopamine receptor) was over 10 µM each time.

As for `COc1ccc(NC(=O)N2CCN(c3ccc(Cl)cc3)CC2)cc1N1CCN(C)CC1`, the Ki was 0.00182 µM in [1]; over 10 µM on D(1A) dopamine receptor; 0.0525 µM in assay [2]; over 10 µM in assay [3]; over 10 µM in assay [4]; over 10 µM in assay [5]. Also, the Ki is over 10 µM on Histamine H1 receptor; over 10 µM in assay [6]; over 10 µM in assay [7]; over 10 µM in [8]; 1.01 µM in assay [9]; over 10 µM at D(3) dopamine receptor. For the same compound, the inhibition constant (Ki) (in assay [10]; in assay [11]; at D(2) dopamine receptor) was over 10 µM throughout.

As to `COc1ccc(NC(=O)c2ccc(-c3ccc(-c4noc(C)n4)cc3C)cc2)cc1N1CCN(C)CC1` [GR-127935], the Ki is 0.00431 µM in assay [1]; over 10 µM at D(1A) dopamine receptor; 0.08 µM in assay [2]; over 10 µM in assay [3]; over 10 µM in [4]; over 10 µM in assay [5]. In addition, the Ki at Histamine H1 receptor was over 10 µM; in [6], over 10 µM; in assay [7], over 10 µM; in [8] it was over 10 µM; in [9] it was 0.0427 µM; at D(3) dopamine receptor, over 10 µM. Further, the inhibitory constant (Ki) (in [10]; in assay [11]; at D(2) dopamine receptor) was over 10 µM in each case.

`COc1ccc(NC(=O)N2CCN(c3ccc(SC)cc3)CC2)cc1N1CCN(C)CC1`: the Ki is 0.0167 µM in [1]; over 10 µM on D(1A) dopamine receptor; 0.882 µM in assay [2]; over 10 µM in assay [3]; over 10 µM in assay [4]; over 10 µM in assay [5]. Moreover, the Ki is over 10 µM on Histamine H1 receptor; over 10 µM in assay [6]; over 10 µM in [7]; over 10 µM in assay [8]; 1.34 µM in assay [9]; over 10 µM on D(3) dopamine receptor. Further, the inhibitory constant (Ki) (in assay [10]; in assay [11]; on D(2) dopamine receptor) was over 10 µM each time.

As for `COc1ccc(NC(=O)N2CCN(c3ccc(F)cc3)CC2)cc1N1CCN(C)CC1`, the Ki in assay [1] is 0.0383 µM; on D(1A) dopamine receptor, over 10 µM; in [2] it was 1.08 µM; in assay [3] it was over 10 µM; in assay [4], over 10 µM; in assay [5], over 10 µM. In addition, the Ki is over 10 µM on Histamine H1 receptor; over 10 µM in assay [6]; over 10 µM in assay [7]; over 10 µM in [8]; 4.45 µM in assay [9]; over 10 µM on D(3) dopamine receptor. Moreover, the Ki (in assay [10]; in assay [11]; at D(2) dopamine receptor) was over 10 µM in each case.
